Results on 3 compounds are retold here after patent US20160223525A1, “METHOD OF SCREENING FOR COMPOUNDS USEFUL IN THE TREATMENT OF ALZHEIMER DISEASE” (INNOVATIVE CONCEPTS IN DRUG DEVELOPMENT, priority 2013, published 2016).

In data set [1] the test system is Patient-derived fibroblasts (AD patient, affected cells). Nature of the data set: Reversal of the AD-signature (mitochondrial behaviour variables V3, V5, V7, V11, V19) by dynamic imaging of MitoTracker green-labelled live cells. The format is cell-based, human. To be noted: for overall rescue of the diseased (AD) phenotype, weighted by discriminant equation: 30 min incubation, healthy control=100%, AD control=0%; for overall rescue / reversal of the AD-signature, dose-response: across tested doses (0.05/0.1 to 10 μM). On the procedure: Fibroblasts were labelled with MitoTracker green, a cell-permeant mitochondrial dye not sensitive to mitochondrial membrane potential, for 30 minutes. Images were recorded from an epifluorescence microscope continuously for 6 minutes. Cells were kept at 37° C. for the duration of the image capture. For each experimental condition, 3 to 15 cells were recorded per well from three independent plates, i.e. up to 6000 individual mitochondria. The maximum duration for data acquisition was 30 minutes (i.e. five cells observed during 6 min). Images were captured with a Zeiss Axioplan II microscope along three dimensions in space and in time.
Patient-derived fibroblasts were cultured in DMEM containing 15% fetal calf serum and 0.5% DMSO, a concentration known to be inert on the mitochondrial behaviour.
[…] These concentrations are consistent with circulating levels of most drugable small molecules. They are within the range of doses centered on cMax when PK/PD (Pharmacokinetic/Pharmacodynamic) studies are available.
The negative control consists in affected cells treated with the vehicle only (DMSO), the positive control consists in healthy cells treated with the vehicle only (DMSO).
Reference compounds were tested on affected cells and compared to the 2 controls.
All raw data were expressed as a percent of control values (Healthy control=100%, AD control=0%).
Data analysis of the signature variables was particularly tuned to identify bifurcation in the logic of the descriptor measured. These bifurcations and the type of adaptation put in place by the mitochondrial reticular network give us significant insights on how the cell adapts to the test element. Impact of the disease on each individual variable was analyzed through a classical linear analysis with an analysis of variance (ANOVAs). Significant differences between groups are sought through a Bonferroni post-hoc analysis.

For data set [2] the following is noted: cited from earlier work.
Where [3] appears, read: across tested doses (0.1, 1, 10 μM).
The mark [4] stands for this setting: across tested doses (0.1, 1, 10 μM; imatinib also 0.05 μM).

Take `CC(=O)[C@H]1CC[C@H]2[C@@H]3CC[C@H]4C[C@H](O)CC[C@]4(C)[C@H]3CC[C@]12C` [Allopregnanolone]: the “overall rescue of the diseased (AD) phenotype, weighted by discriminant equation” value (shortened to “overall rescue … by discriminant equation”) in data set [1] (1 μM) worked out at 36%. Besides, the “overall rescue … by discriminant equation” value in data set [1] (10 μM) was “provided a dose-dependent rescue”. The “V5 (average cell area or dispersion descriptor of the areas of cells), % of phenotypic rescue” value in data set [1] (1 and 10 μM) was “rescue was obtained”. Further, the “overall rescue / reversal of the AD-signature, dose-response” value in data set [1] is reported as “ability to reverse the AD-signature in a dose-dependent manner”. In data set [1] (setting [3]), the “V7 (total area of regions containing entwined mitochondria to the total cell area), % of phenotypic rescue” value is “detrimental at the lowest tested dose and tended to improve with increasing concentration of the drug but not to a level where the disease phenotype was reversed”; the “V19 (frequency of mitochondria displaying an area between 2.6 and 3.1 μm^2), % of phenotypic rescue” value was “no effect”. In data set [1] (setting [4]), the “V3 (dispersion descriptor of the moving speeds of mitochondria), % of phenotypic rescue” value was “rescue was obtained at all tested doses”; the “V11 (cell area covered with mitochondria), % of phenotypic rescue” value is “detrimental at the lowest tested dose and tended to improve with increasing concentration of the drug but not to a level where the disease phenotype was reversed”.

Consider `Cc1ccc(NC(=O)c2ccc(CN3CCN(C)CC3)cc2)cc1Nc1nccc(-c2cccnc2)n1` [Imatinib], for which, in data set [1] (0.05 μM), the “V3 (dispersion descriptor of the moving speeds of mitochondria), % of phenotypic rescue” value is recorded as “not affected”; the “V5 (average cell area or dispersion descriptor of the areas of cells), % of phenotypic rescue” value is “level comparable to that of healthy subject-derived cells”; the “V7 (total area of regions containing entwined mitochondria to the total cell area), % of phenotypic rescue” value is reported as “level comparable to that of healthy subject-derived cells”; the “V11 (cell area covered with mitochondria), % of phenotypic rescue” value is “not affected”. Further, in data set [1] (0.05 μM), the “V19 (frequency of mitochondria displaying an area between 2.6 and 3.1 μm^2), % of phenotypic rescue” value is on record as “level comparable to that of healthy subject-derived cells”; the “overall rescue … by discriminant equation” value stood at 54%. Besides, in data set [1] (setting [4]), the “V3 (dispersion descriptor of the moving speeds of mitochondria), % of phenotypic rescue” value is “tended to improve with increasing doses” and the “V11 (cell area covered with mitochondria), % of phenotypic rescue” value is given as “worsened”. In addition, the “overall rescue of the diseased (AD) phenotype” value in data set [1] (doses lower than 0.05 μM (not shown)) was “no effect”.

`Oc1ccc(C=Cc2cc(O)cc(O)c2)cc1` [Resveratrol]: the bioavailability result in data set [2] is “poor bioavailability”. In data set [1] (0.1 μM), the “overall rescue … by discriminant equation” value is “did not provide rescue to the AD phenotype but a detrimental effect with worsening of the diseased status”. Further, the “overall rescue … by discriminant equation” value in data set [1] (1 μM) is on record as “did not provide rescue to the AD phenotype but a detrimental effect with worsening of the diseased status”. For the same compound, in data set [1] (10 μM), the “overall rescue … by discriminant equation” value is listed as 63%. The “overall rescue / reversal of the AD-signature, dose-response” value in data set [1] is recorded as “ability to reverse the AD-signature in a dose-dependent manner”. Further, in data set [1] (setting [3]), the “V5 (average cell area or dispersion descriptor of the areas of cells), % of phenotypic rescue” value is on record as “seesaw effects”; the “V7 (total area of regions containing entwined mitochondria to the total cell area), % of phenotypic rescue” value is given as “seesaw effects”; the “V19 (frequency of mitochondria displaying an area between 2.6 and 3.1 μm^2), % of phenotypic rescue” value is listed as “greatly worsened the disease-phenotype”. In data set [1] (setting [4]), the “V3 (dispersion descriptor of the moving speeds of mitochondria), % of phenotypic rescue” value was “efficient in reversing the disease phenotype” and the “V11 (cell area covered with mitochondria), % of phenotypic rescue” value is reported as “greatly worsened the disease-phenotype”.
